Reference: publication PMC7558102, “Hybrid Multimodal Imaging Synthons for Chemoselective and Efficient Biomolecule Modification with Chelator and Near-Infrared Fluorescent Cyanine Dye” (Pharmaceuticals, 2020)
Like-named read-outs stand apart in the source and are kept apart here.

Key:
[1] = logD of the unconjugated NIR cyanine dyes 1–3; type: physicochemical; conditions: 1-octanol/water; unconjugated dye
[2] = photophysical properties (absorbance and emission measurements); type: physicochemical; conditions: for log ε: at λmax(abs); for λmax(em): excitation wavelength λex = 650 nm
Protocol: Finally, the photophysical properties were determined for dyes, MIS and their conjugates. It could be shown that the photophysical properties remained largely unaltered, including absorption coefficients and emission characteristics (Table 1). […] The only change in photophysical properties we qualitatively observed was an increase in the quantum yields of the dye conjugates compared to their unconjugated leads 1–3, an effect that was described before and can be attributed to the conjugation of sterically demanding groups (such as the PESIN homodimers used here), resulting in a decrease in aggregation of the dye molecules and thus a reduced fluorescence quenching. γ-Counting was performed using a 2480 Wizard gamma counter system from Perkin Elmer. A Cary 100 Bio system (Varian) was used to record the UV/Vis-Spectra together with 4 mL PMMA cuvettes from Sigma-Aldrich. Furthermore, for absorbance and emission measurements, a Tecan Infinite M200 Microplate reader together with a Nunc Micro-Well 96 solid plate from ThermoFisher was used.

[3] = type: physicochemical; conditions: pH 7.4
Protocol: (§1) The mixtures were vigorously shaken for 5 min on a vibrating plate. After subsequent centrifugation at 13,000 rpm for 5 min, 125 µL was taken from each phase and measured in a γ-counter. The logD values were calculated from three or four independent experiments, each performed in triplicate. For 18, the logD was determined by semipreparative HPLC. For this purpose, a solution of 18 (10 µL, c = 5 × 10^−4 mol/L) in water was added to a mixture of 1 mL 1-octanol and 990 µL phosphate buffered solution (0.05 M, pH 7.4) and vigorously shaken for 5 min. After centrifugation, the phases were separated and both phases were analyzed by semipreparative HPLC and the peaks of the UV signals at 214 nm were integrated. The logD was determined by three separate measurements, each experiment performed in triplicate.

[4] = water/1-octanol partition coefficients (logD) of 68Ga-labeled compounds, γ-counting; type: physicochemical; conditions: pH 7.4
Protocol: as §1

logD [1]	Stokes Shift [2]	λmax(abs) [2]	log ε [2]	λmax(em) [2]	logD [3]	SMILES	logD [4]
-1.03 ± 0.11	11 nm	804 nm	5.00 M^−1 cm^−1	815 nm	–	CC1(C)C(/C=C/C2=C(c3ccc(C(=O)O)cc3)C(=C/C=C3/N(CCCCS(=O)(=O)[O-])c4ccc5ccccc5c4C3(C)C)/CCC2)=[N+](CCCCS(=O)(=O)O)c2ccc3ccccc3c21 [Compound 1]	–
-4 ± 0.11	20 nm	761 nm	5.44 M^−1 cm^−1	781 nm	–	CC1(C)C(/C=C/C2=C(c3ccccc3)C(=C/C=C3/N(CCCCS(=O)(=O)[O-])c4ccc(S(=O)(=O)O)cc4C3(C)C)/CCC2)=[N+](CCCCS(=O)(=O)O)c2ccc(C(=O)O)cc21 [Compound 2]	–
-3.95 ± 0.15	19 nm	756 nm	5.32 M^−1 cm^−1	775 nm	–	CC1(C)C(/C=C/C2=C(c3ccc(CCC(=O)O)cc3)C(=C/C=C3/N(CCCCS(=O)(=O)[O-])c4ccc(S(=O)(=O)O)cc4C3(C)C)/CCC2)=[N+](CCCCS(=O)(=O)O)c2ccc(S(=O)(=O)O)cc21 [Compound 3]	–
–	–	–	–	–	-0.99 ± 0.03	CSCC[C@H](NC(=O)[C@H](CC(C)C)NC(=O)[C@H](Cc1c[nH]cn1)NC(=O)CNC(=O)[C@@H](NC(=O)[C@H](C)NC(=O)[C@H](Cc1c[nH]c2ccccc12)NC(=O)[C@H](CCC(N)=O)NC(=O)CCOCCOCCOCCOCCNC(=O)CON=Cc1ccc(C(=O)NCCCN(CCCNC(=O)c2ccc(C=NOCC(=O)NCCOCCOCCOCCOCCC(=O)N[C@@H](CCC(N)=O)C(=O)N[C@@H](Cc3c[nH]c4ccccc34)C(=O)N[C@@H](C)C(=O)N[C@H](C(=O)NCC(=O)N[C@@H](Cc3c[nH]cn3)C(=O)N[C@@H](CC(C)C)C(=O)N[C@@H](CCSC)C(N)=O)C(C)C)cc2)CC(=O)N[C@H](CSC2CC(=O)N(CCN3C(=O)CC(SC)C3=O)C2=O)C(=O)NCCOCCOCC(N)=O)cc1)C(C)C)C(N)=O (stereo partly drawn) [Compound 18]	–
–	–	–	–	–	–	CSCC[C@H](NC(=O)[C@H](CC(C)C)NC(=O)[C@H](Cc1c[nH]cn1)NC(=O)CNC(=O)[C@@H](NC(=O)[C@H](C)NC(=O)[C@H](Cc1c[nH]c2ccccc12)NC(=O)[C@H](CCC(N)=O)NC(=O)CCOCCOCCOCCOCCNC(=O)CON=Cc1ccc(C(=O)NCCCN(CCCNC(=O)c2ccc(C=NOCC(=O)NCCOCCOCCOCCOCCC(=O)N[C@@H](CCC(N)=O)C(=O)N[C@@H](Cc3c[nH]c4ccccc34)C(=O)N[C@@H](C)C(=O)N[C@H](C(=O)NCC(=O)N[C@@H](Cc3c[nH]cn3)C(=O)N[C@@H](CC(C)C)C(=O)N[C@@H](CCSC)C(N)=O)C(C)C)cc2)CC(=O)N[C@H](CSC2CC(=O)N(CCN3C(=O)CC(SC[C@H](NC(=O)[C@H](CCCCNC(=O)CCc4ccc(C5=C(C=CC6=[N+](CCCCS(=O)(=O)[O-])c7ccc(S(=O)(=O)O)cc7C6(C)C)CCCC5=CC=C5N(CCCCS(=O)(=O)O)c6ccc(S(=O)(=O)O)cc6C5(C)C)cc4)NC(=O)CC[C@H](C(=O)O)N4CCN(CC(=O)O)CCN(CC(=O)O)CC4)C(N)=O)C3=O)C2=O)C(=O)NCCOCCOCC(N)=O)cc1)C(C)C)C(N)=O (stereo partly drawn) [[68Ga]Ga-16, metal not drawn]	-2.55 ± 0.13
–	–	–	–	–	–	CSCC[C@H](NC(=O)[C@H](CC(C)C)NC(=O)[C@H](Cc1c[nH]cn1)NC(=O)CNC(=O)[C@@H](NC(=O)[C@H](C)NC(=O)[C@H](Cc1c[nH]c2ccccc12)NC(=O)[C@H](CCC(N)=O)NC(=O)CCOCCOCCOCCOCCNC(=O)CON=Cc1ccc(C(=O)NCCCN(CCCNC(=O)c2ccc(C=NOCC(=O)NCCOCCOCCOCCOCCC(=O)N[C@@H](CCC(N)=O)C(=O)N[C@@H](Cc3c[nH]c4ccccc34)C(=O)N[C@@H](C)C(=O)N[C@H](C(=O)NCC(=O)N[C@@H](Cc3c[nH]cn3)C(=O)N[C@@H](CC(C)C)C(=O)N[C@@H](CCSC)C(N)=O)C(C)C)cc2)CC(=O)N[C@H](CSC2CC(=O)N(CCN3C(=O)CC(SC[C@H](NC(=O)CNC(=O)CC[C@H](C(=O)O)N4CCN(CC(=O)O)CCN(CC(=O)O)CC4)C(N)=O)C3=O)C2=O)C(=O)NCCOCCOCC(N)=O)cc1)C(C)C)C(N)=O (stereo partly drawn) [[68Ga]Ga-17, metal not drawn]	-2.38 ± 0.03
